Tests used:
[1] = test system: D1 -like (Rabbit Splenic Artery); assay: D1-like activity in the Rabbit Splenic Artery (RSA) test; conditions: agonist activity at the peak of the effect; contracted with U46619 0.1 μM
Description: Arterial rings were prepared according to Semeraro et al., Naunyn. Schmied. Arch. Pharmacol., 1990, 342, 539.
The arterial preparations were contracted with U46619 (9,11-di-deoxy-11α,9α-epoxy-methanoprostaglandin F2α) at the submaximal concentration 0.1 μM.
(§1) The tested compounds were cumulatively administered.
(§2) Ref. A was used as reference substance.
(§3) Agonist activity evaluated at the peak of the effect and expressed as potency ratio (EC50 of Ref. A/EC50 of tested compound) is reported in table 2.

[2] = target: T1, D2 -like (Rabbit Ear Artery) (Oryctolagus cuniculus, UniProt G1T1Q0); assay: D2-like activity in the Rabbit Ear Artery (REA) test; set-up: species or system New Zealand rabbit; conditions: agonist activity at the peak of the effect; electrically stimulated
T1 construct: the central ear artery was dissected into 3 mm long rings; from tissue; host or cells: rabbit central ear artery rings (male New Zealand rabbits), electrically stimulated
Description: Arterial rings were prepared according to the method described by Steinsland et al., Science, 1978, 443, 199, modified as follows. Male New Zealand rabbits weighing 2.5-3 Kg were sacrificed by intravenous injection of an excess of pentobarbital sodium and exsanguinated. The two ears were taken away and the central ear artery was dissected into 3 mm long rings.
These preparations were set up in a 25 ml organ bath containing Krebs solution (mM/l): NaCl 118, KCl 4.7, CaCl2 2.5, MgSO4 1.2, NaHCO3 25, KH2 PO4 1.2, glucose 11.1, equilibrated with 95% 02 -5% CO2 and maintained at 35°±1° C.
Krebs solution was medicated with EDTA (10 μM) to prevent cathecolamine oxydation, desipramine (0.1 μM) and corticosterone (30 μM), to block neuronal and extraneuronal cathecolamine uptake. The preparations were electrically stimulated (10 Hz, 1 msec, 40-80 mA, 500 msec duration) at 5 minutes intervals.
as §1, §2, §3

T1 sequence (G1T1Q0 1-443): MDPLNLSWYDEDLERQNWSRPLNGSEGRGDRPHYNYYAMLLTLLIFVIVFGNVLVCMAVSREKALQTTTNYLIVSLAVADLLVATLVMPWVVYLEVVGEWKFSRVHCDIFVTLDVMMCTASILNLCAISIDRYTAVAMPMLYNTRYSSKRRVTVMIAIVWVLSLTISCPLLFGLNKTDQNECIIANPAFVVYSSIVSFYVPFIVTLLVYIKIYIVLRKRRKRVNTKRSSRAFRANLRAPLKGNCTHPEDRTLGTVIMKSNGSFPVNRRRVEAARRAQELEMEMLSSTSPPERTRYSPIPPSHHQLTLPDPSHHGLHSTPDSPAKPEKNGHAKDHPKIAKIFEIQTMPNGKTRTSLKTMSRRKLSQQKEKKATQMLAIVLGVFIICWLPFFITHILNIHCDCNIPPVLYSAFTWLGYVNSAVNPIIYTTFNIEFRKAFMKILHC

SMILES | D1 -like (RSA) potency ratio (EC50 of Ref. A/EC50 of tested compound) [1] | D2 -like (REA) potency ratio (EC50 of Ref. A/EC50 of tested compound) [2]
Br.Br.CCCN(CCCCCCNCCc1ccc(O)c(Cl)c1)[C@H]1CCc2c(ccc(O)c2O)C1 [Compound 11, (S)-N-propyl-N-[6-[2-(3-chloro-4-hydroxyphenyl)ethylamino]hexyl]-5,6-dihydroxy-1,2,3,4-tetrahydro-2-naphthylamine dihydrobromide] | 25 | 4
Br.Br.CCCN(CCCCCCNCCc1ccc(O)c([N+](=O)[O-])c1)[C@H]1CCc2c(ccc(O)c2O)C1 [Compound 12, (S)-N-propyl-N-[6-[2-(3-nitro-4-hydroxyphenyl)ethylamino]hexyl]-5,6-dihydroxy-1,2,3,4-tetrahydro-2-naphthylamine dihydrobromide] | 5 | –
Br.Br.CCCN(CCCCCCNCCc1ccc(O)c(C)c1)[C@H]1CCc2c(ccc(O)c2O)C1 [Compound 14, (S)-N-propyl-N-[6-[2-(3-methyl-4-hydroxyphenyl)ethylamino]hexyl]-5,6-dihydroxy-1,2,3,4-tetrahydro-2-naphthylamine dihydrobromide] | 33 | 3
Br.Br.CCCN(CCCCCCNCCc1cc(O)c(C)c(O)c1)[C@H]1CCc2c(ccc(O)c2O)C1 [Compound 17, (S)-N-propyl-N-[6-[2-(3,5-dihydroxy-4-methylphenyl)ethylamino]hexyl]-5,6-dihydroxy-1,2,3,4-tetrahydro-2-naphthylamine dihydrobromide] | 12 | 25
Br.Br.CCCN(CCCCCCNCCc1ccc2[nH]c(=O)sc2c1)[C@H]1CCc2c(ccc(O)c2O)C1 [Compound 18, (S)-N-propyl-N-[6-[2-(2-oxo-3H-1,3-benzothiazol-6-yl)ethylamino]hexyl]-5,6-dihydroxy-1,2,3,4-tetrahydro-2-naphthylamine dihydrobromide] | 50 | 5

Next, values leading:

D1 -like (RSA) potency ratio (EC50 of Ref. A/EC50 of tested compound) [1] | D2 -like (REA) potency ratio (EC50 of Ref. A/EC50 of tested compound) [2] | SMILES
11 | 4 | Br.Br.CCCN(CCCCCCNCCc1ccc2sc(=O)[nH]c2c1)[C@H]1CCc2c(ccc(O)c2O)C1 [Compound 19, (S)-N-propyl-N-[6-[2-(2-oxo-3H-1,3-benzothiazol-5-yl)ethylamino]hexyl]-5,6-dihydroxy-1,2,3,4-tetrahydro-2-naphthylamine dihydrobromide]
3 | 1.7 | Br.Br.CCCN(CCCCCCNCCc1cc(O)cc(Cl)c1)[C@H]1CCc2c(ccc(O)c2O)C1 [Compound 21, (S)-N-propyl-N-[6-[2-(3-chloro-5-hydroxyphenyl)ethylamino]hexyl]-5,6-dihydroxy-1,2,3,4-tetrahydro-2-naphthylamine dihydrobromide]
33 | 10 | CCCN(CCCCCCNCCc1ccc(O)c(OC)c1)[C@H]1CCc2c(ccc(O)c2O)C1.Cl.Cl [Compound 26, (S)-N-propyl-N-[6-[2-(3-methoxy-4-hydroxyphenyl)ethylamino]hexyl]-5,6-dihydroxy-1,2,3,4-tetrahydro-2-naphthylamine dihydrochloride]
25 | 4 | CCCN(CCCCCCNCCc1ccc(OC)c(O)c1)[C@H]1CCc2c(ccc(O)c2O)C1.Cl.Cl [Compound 27, (S)-N-propyl-N-[6-[2-(3-hydroxy-4-methoxyphenyl)ethylamino]hexyl]-5,6-dihydroxy-1,2,3,4-tetrahydro-2-naphthylamine dihydrochloride]
